Experimental findings from patent publication US10765625B2, “Knottin-drug conjugates and methods of using the same” (THE BOARD OF TRUSTEES OF THE LELAND STANFORD JUNIOR …, priority 2016, dated 2020) are described below.

Experiment [1] deals with U87MG cells. The experiment can be described thus: Cell proliferation, CCK-8 colorimetric assay. It counts as cell-based. On the procedure: (§1) U87MG, and PANC-1 cells were grown in Dulbecco's Modified Eagle Medium (DMEM) with 10% fetal bovine serum (FBS) and 1% penicillin/streptomycin. MDA-MB-468 cells were grown in DMEM and Ham's F-12 medium (DMEM/F12) with 10% FBS and 1% penicillin/streptomycin. A2780 and BxPC3 cells were grown in Roswell Park Memorial Institute medium (RPMI) 1640+L-glutamine, with 10% FBS and 1% penicillin/streptomycin. D270 cells were grown in MEM (Richter's modification, no phenol red) with 10% FBS and 0.1% Gentamicin. Unless otherwise specified, cells were incubated at 37° C., 5% CO2. Flow cytometry was performed using an EMD Millpore Guava EasyCyte 8HT flow cytometer and the resulting data were evaluated using FlowJo software provided by TreeStar, Inc. Cell proliferation was measured using the Dojindo Cell Counting Kit-8 by replacing the media in each well with 100 μL of media containing 10% WST-8. After incubation for 1 h at 37° C., absorbance, A, at 450 nm was measured with a BioTek Synergy H4 microtiter plate reader. The background signal of CCK-8 alone was subtracted from all samples. Cell proliferation was then expressed as a percentage of absorbance relative to the control of untreated cells (Equation 2). Nonlinear regression analysis was performed using GraphPad Prism.
Next, the potency of each KDC was tested in a cell-proliferation experiment. […] Cells were seeded in a 96-well plate at a density of 2,500 cells per well and grown overnight at 37° C., 5% CO2 in DMEM with 10% FBS and 1% penicillin/streptomycin. Cells were subsequently treated with 100 μL of fresh media, containing varying concentrations of drug, protein, or protein-drug conjugate and incubated for 4 d at 37° C., 5% CO2. Cell proliferation was measured according to the method described in Section 1.3. Error bars represent the standard deviation of experiments performed in triplicate. […] Given that the linker must be cleaved to release free Gemcitabine in order for the payload to become active, the low potency of 5b can be explained by the greater stability of the carbamate group as compared to the other linkers tested.

Experiment [2] concerns U87MG cells. The experiment can be described thus: Integrin-blocking competition: cell proliferation (CCK-8) after pre-treatment with EETI-2.5F (1). In kind it is cell-based. The note with it: 1 μM 1, 3 h pre-treatment and co-treatment. On the procedure: as §1
One possible explanation for the apparent hENT1-independence of 5d is that its route of internalization could be integrin-mediated. The role of integrin-binding in the biological potency and hENT1-independence of 5d was determined. A competition experiment was carried out in which U87MG cells were pre-treated with unconjugated EETI-2.5F (1) in order to block integrins on the cell surface. The role of integrin-binding was studied by measuring the proliferation of U87MG cells that had been pre-treated with EETI-2.5F (1) when exposed to increasing doses of 3 and KDCs 5a, 5c, and 5d. […] Media used to prepare varying concentrations of drug, protein, or protein-drug conjugate also contained 1 μM of 1. Prior to treatment, cells were incubated for 3 h at 37° C., 5% CO2 with fresh media containing 1 μM 1. After this pre-treatment, cells were incubated with varying concentrations of 5a, 5c, or 5d for 24 h and then media was replaced with fresh media and cells were incubated for an additional 48 h. Cell proliferation was measured using the Cell Counting Kit-8 by replacing the media in each well with 100 μL of media containing 10% WST-8. After incubation for 1 h at 37° C., absorbance at 450 nm was measured with a Synergy H4 microtiter plate reader. Cell proliferation was measured according to the method described in Section 1.3. Error bars represent the standard deviation of experiments performed in triplicate.

Like-named read-outs stand apart in the source and are kept apart here.

Take `CC(C)C[C@@H]1NC(=O)[C@@H]2CSSC[C@@H](C(=O)NCC(=O)O)NC(=O)[C@H](Cc3ccccc3)NC(=O)CNC(=O)[C@H](CC(N)=O)NC(=O)[C@@H]3CCCN3C(=O)CNC(=O)[C@@H]3CSSC[C@H](NC(=O)[C@H]([C@@H](C)O)NC(=O)[C@H](CC(C)C)NC(=O)[C@@H]4CCCN4C(=O)[C@@H]4CCCN4C(=O)[C@H](CC(N)=O)NC(=O)[C@H](CC(=O)O)NC(=O)CNC(=O)[C@H](CCCNC(=N)N)NC(=O)[C@@H]4CCCN4C(=O)[C@H](CCCNC(=N)N)NC(=O)[C@@H]4CCCN4C(=O)[C@@H](NC(=O)CN)CSSC[C@H](NC(=O)CNC(=O)[C@H](C)NC1=O)C(=O)N[C@@H](C(C)C)C(=O)N3)C(=O)N[C@@H](CCCn1cc(CCC(=O)N[C@H](C(=O)N[C@@H](C)C(=O)Nc3ccc(COC(=O)Nc4ccn([C@@H]5O[C@H](CO)[C@@H](O)C5(F)F)c(=O)n4)cc3)C(C)C)nn1)C(=O)N[C@@H](CCC(N)=O)C(=O)N[C@@H](CC(=O)O)C(=O)N[C@@H](CO)C(=O)N[C@@H](CC(=O)O)C(=O)N2` [5d]: the “Potency / growth inhibition in U87MG cells (in words)” value in experiment [1] (U87MG cells, 4 d) is recorded as “low-nanomolar ED50 values”. Moreover, the EC50 in experiment [1] (U87MG cells, 4 d incubation, vs untreated control, read-out: ED50 (nM), potency) was 9 ± 1.8 nM; in experiment [1] (U87MG glioblastoma, 4 d after treatment, read-out: ED50 (nM), cell growth inhibition), 9 ± 1.8 nM. The “Effect of integrin blocking by pre-treatment with 1 on potency (in words)” value in experiment [2] is “abolishes the potency”.
